Where a name gives a salt, the structure may show the parent alone.
System: dietary obese female Wistar rats
Assay: Chronic influence on food and water intake and body weight gain in vivo (carcass composition, plasma parameters)
Set-up: species or system rat
Conditions: 28 days, mean ± SEM; for Plasma glucose / Plasma insulin / Plasma leptin: plasma day 29
Experimental: 4. Chronic Influence on Food and Water Intake and Body Weight Gain in vivo
Female Wistar rats (weight range 250-300 g; Charles River, Margate, Kent) were housed in pairs in polypropylene cages with solid floors and sawdust bedding at a temperature of 21±4° C. and 55±20% humidity. Animals were maintained on a reverse phase light-dark cycle (lights off for 8 hours from 10.00-18.00 h) during which time the room was illuminated by red light. Animals had free access to powdered high fat diet (VRF1 plus 20% lard), ground chocolate, ground peanuts and tap water at all times. The three different diets were contained in separate glass feeding jars with aluminium lids (Solmedia Laboratory Suppliers, Romford, Essex). […] Animals were housed in pairs for twelve weeks. At least two weeks before the start of the baseline readings, animals were housed individually in polypropylene cages with wire grid floors to enable the food intake of each rat to be recorded. Polypropylene trays with cage pads were placed beneath each cage to detect any food spillage.
At the start of the study, animals were weighed (to the nearest 0.1 g using an electronic top-pan balance) and allocated into 6 weight-matched treatment groups, each containing 10 animals. Following a 7 day baseline run-in period, during which time all animals were dosed orally once a day with vehicle (1% Tylose MH50, 0.1% poloxamer 188), rats were given vehicle or test compound of Formula I for 28 days as described in Table 4 below: […]
The test substance of example 2 was suspended in 1% Tylose MH50, 0.1% poloxamer 188 and administered by oral gavage (2 ml/kg). All dosing occurred at the onset of the 8 hours dark period (spanning the period immediately before and after lights out). The second treatments were given 4 hours after the first. Rats, feeding jars and water bottles were weighed (to the nearest 0.1 g) every day at the time of administration of vehicle or test substance. At each reading, the tray below each cage was examined for spilt food, which was returned to the appropriate jar before weighing. However, spillage of food from the feeding jars was negligible. Variations in body weight and energy levels of the different types of food were accounted for by expressing the food intake results in terms of kJ/kg rat weight. Water intake results were expressed in g/kg.
Animals were killed at the end of the study (by CO2 to minimize any fluid loss) on day 29 and blood samples (5 ml whole blood/animal) were collected by cardiac puncture. Plasma was separated by centrifugation and stored at −75° C. until analysis. Following blood collection carcasses were weighed, frozen and stored at −75° C. for body composition analysis. Body fat, protein, water and ash levels of the carcasses were determined using standard chemical analysis techniques. Only fat, protein, water and ash content were measured as other components (mainly carbohydrate) form less than 2% of total body composition.
Carcasses were individually milled at the temperature of liquid nitrogen, mixed and two representative samples taken. Carcass water was determined by freeze-drying the samples to constant weight. Carcass fat was determined on the freeze-dried samples using a modified Soxhlet extraction protocol (petroleum ether at 40-60° C.) with a Foss Soxtec® HT2 system (Foss UK Ltd, Wheldrake, UK) according to the manufacturers recommended protocol. Carcass protein was determined using a micro-Kjeldahl procedure on the freeze-dried samples using a Foss 2012® digestion block and Foss 2200® distilling unit (Foss UK Ltd). Residual carcass ash was determined by firing the freeze-dried samples at high temperatures using a muffle ashing furnace. Repeat determinations of the chemical analysis parameters were performed as necessary (e.g. if the duplicate samples differed by more than 1%).

[1] = 30 mg/kg po twice daily (0 h, 4 h)
[2] = 50 mg/kg po twice daily (0 h, 4 h)

Compound: NS(=O)(=O)N1CCN(c2ccccc2)CC1 [Example 2, N-Sulfamoyl-N′-phenylpiperazine hydrochloride]
- Carcass ash, mean percent final body weight [1]: 3.24 ± 0.12%
- Carcass ash, mean weight per rat [1]: 12.13 ± 0.48 g
- Carcass fat, mean percent final body weight [1]: 22.8 ± 1.0 %
- Carcass fat, mean weight per rat [1]: 87.9 ± 3.8 g
- Carcass protein, mean percent final body weight [1]: 17.4 ± 0.3*° %
- Carcass protein, mean weight per rat [1]: 64.8 ± 1.2 g
- Carcass water, mean percent final body weight [1]: 55.2 ± 0.8 %
- Carcass water, mean weight per rat [1]: 205.8 ± 3.1 g
- Carcass weight, mean per rat [1]: 375.4 ± 4.8 g
- Plasma glucose (30 mg/kg po twice daily): 8.6 ± 0.5 mM
- Plasma insulin (30 mg/kg po twice daily): 1.53 ± 0.33 ng/mL
- Plasma leptin (30 mg/kg po twice daily): 68.8 ± 9.4 ng/mL
- Carcass ash, mean percent final body weight [2]: 3.14 ± 0.1%
- Carcass ash, mean weight per rat [2]: 11.38 ± 0.29 g
- Carcass fat, mean percent final body weight [2]: 22.3 ± 1.8 %
- Carcass fat, mean weight per rat [2]: 83.6 ± 6.9 g
- Carcass protein, mean percent final body weight [2]: 17.3 ± 0.4*° %
- Carcass protein, mean weight per rat [2]: 62.8 ± 1.3 g
- Carcass water, mean percent final body weight [2]: 55.7 ± 1.2 %
- Carcass water, mean weight per rat [2]: 202.2 ± 3.6 g
- Carcass weight, mean per rat [2]: 365.6 ± 3.8 g
- Plasma glucose (50 mg/kg po twice daily): 7.9 ± 0.5 mM
- Plasma insulin (50 mg/kg po twice daily): 1.40 ± 0.41 ng/mL
- Plasma leptin (50 mg/kg po twice daily): 58.8 ± 11.6 ng/mL
